How the values were obtained:
Type in all cases: in vivo
[1] = system: barnyardgrass (Echinochloa crus-galli); assay: Test C preemergence, plant response rating; settings: scale 0 to 100; for Barnyardgrass plant response rating: preemergence
[2] = system: pigweed (Amaranthus retroflexus); assay: Test C preemergence, plant response rating; settings: scale 0 to 100; for Plant response rating, Pigweed: Preemergence; for Pigweed plant response rating: preemergence
[3] = system: oat, wild (wild oat Avena fatua); assay: Test C postemergence, plant response rating; settings: Avena fatua, post-emergence
In short: (§1)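 Visual injury score, 0 = no effect, 100 = complete control, assigned against untreated controls after 13 to 15 d in the greenhouse. Compounds were applied in a surfactant-containing non-phytotoxic solvent mix, preemergence to seeded loam/sand or silt loam soil, or postemergence to 1- to 4-leaf plants (2 to 18 cm).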

[4] = system: morningglory (Ipomoea coccinea); assay: Test C postemergence, plant response rating; settings: Ipomoea, post-emergence
In short: as §1

[5] = system: ragweed (common ragweed, Ambrosia elatior); assay: Test C postemergence, plant response rating; settings: Ambrosia artemisiifolia, post-emergence
In short: as §1

[6] = system: chickweed (common chickweed, Stellaria media); assay: Test C postemergence, plant response rating; settings: Stellaria media, post-emergence
In short: as §1

[7] = system: velvetleaf (Abutilon theophrasti); assay: Test C postemergence, plant response rating; settings: Abutilon theophrasti, post-emergence
In short: as §1

[8] = system: ryegrass, Italian (Italian ryegrass, Lolium multiflorum); assay: Test C postemergence, plant response rating; settings: Lolium multiflorum, post-emergence
In short: as §1

[9] = system: blackgrass (Alopecurus myosuroides); assay: Test C postemergence, plant response rating; settings: Alopecurus myosuroides, post-emergence
In short: as §1

[10] = system: wheat (winter wheat, Triticum aestivum); assay: Test C postemergence, plant response rating; settings: Triticum aestivum, post-emergence
In short: as §1

[11] = system: lambsquarters (Chenopodium album); assay: Test C postemergence, plant response rating; settings: Chenopodium album, post-emergence
In short: as §1

[12] = system: barnyardgrass (Echinochloa crus-galli); assay: Test C postemergence, plant response rating; settings: Echinochloa crus-galli, post-emergence
In short: as §1

[13] = system: nutsedge, yellow (yellow nutsedge, Cyperus esculentus); assay: Test C postemergence, plant response rating; settings: Cyperus, post-emergence
In short: as §1

CCCOC(=O)c1c(Br)cccc1Oc1ncc(Cl)cn1 [Compound 13, propyl 2-bromo-6-[(5-chloro-2-pyrimidinyl)oxy]benzoate]
pest or weed control at 16 g/ha ([1]; Echinochloa crus-galli, pre-emergence, Preemergence, 16 g ai/ha): 10% | pest or weed control at 31 g/ha ([1]; Echinochloa crus-galli, pre-emergence, Preemergence, 31 g ai/ha): 40% | Barnyardgrass plant response rating ([1]; 4 g ai/ha): 0 | Barnyardgrass plant response rating ([1]; 8 g ai/ha): 0 | Plant response rating, Pigweed ([2]; 16 g ai/ha): 5 | Plant response rating, Pigweed ([2]; 31 g ai/ha): 60 | Pigweed plant response rating ([2]; 4 g ai/ha): 5 | Pigweed plant response rating ([2]; 8 g ai/ha): 10 | pest or weed control at 4 g/ha ([3]; 4 g ai/ha, scale of 0 to 100): 0% | pest or weed control at 8 g/ha ([3]; 8 g ai/ha, scale of 0 to 100): 0% | pest or weed control at 16 g/ha ([3]; 16 g ai/ha, scale 0 to 100): 0% | pest or weed control at 31 g/ha ([3]; 31 g ai/ha, scale 0 to 100): 5% | pest or weed control at 4 g/ha ([4]; 4 g ai/ha, scale of 0 to 100): 5% | pest or weed control at 8 g/ha ([4]; 8 g ai/ha, scale of 0 to 100): 5% | pest or weed control at 16 g/ha ([4]; 16 g ai/ha, scale 0 to 100): 20% | pest or weed control at 31 g/ha ([4]; 31 g ai/ha, scale 0 to 100): 30% | pest or weed control at 4 g/ha ([5]; 4 g ai/ha, scale of 0 to 100): 5% | pest or weed control at 8 g/ha ([5]; 8 g ai/ha, scale of 0 to 100): 5% | pest or weed control at 16 g/ha ([5]; 16 g ai/ha, scale 0 to 100): 5% | pest or weed control at 31 g/ha ([5]; 31 g ai/ha, scale 0 to 100): 5% | pest or weed control at 4 g/ha ([6]; 4 g ai/ha, scale of 0 to 100): 5% | pest or weed control at 8 g/ha ([6]; 8 g ai/ha, scale of 0 to 100): 5% | pest or weed control at 16 g/ha ([6]; 16 g ai/ha, scale 0 to 100): 40% | pest or weed control at 31 g/ha ([6]; 31 g ai/ha, scale 0 to 100): 70% | pest or weed control at 4 g/ha ([7]; 4 g ai/ha, scale of 0 to 100): 15% | pest or weed control at 8 g/ha ([7]; 8 g ai/ha, scale of 0 to 100): 15% | pest or weed control at 16 g/ha ([7]; 16 g ai/ha, scale 0 to 100): 20% | pest or weed control at 31 g/ha ([7]; 31 g ai/ha, scale 0 to 100): 25% | pest or weed control at 4 g/ha ([8]; 4 g ai/ha, scale of 0 to 100): 0% | pest or weed control at 8 g/ha ([8]; 8 g ai/ha, scale of 0 to 100): 0% | pest or weed control at 16 g/ha ([8]; 16 g ai/ha, scale 0 to 100): 0% | pest or weed control at 31 g/ha ([8]; 31 g ai/ha, scale 0 to 100): 0% | pest or weed control at 4 g/ha ([9]; 4 g ai/ha, scale of 0 to 100): 0% | pest or weed control at 8 g/ha ([9]; 8 g ai/ha, scale of 0 to 100): 0% | pest or weed control at 16 g/ha ([9]; 16 g ai/ha, scale 0 to 100): 0% | pest or weed control at 31 g/ha ([9]; 31 g ai/ha, scale 0 to 100): 5% | plant injury at 4 g/ha ([10]; 4 g ai/ha, scale of 0 to 100): 0% | plant injury at 8 g/ha ([10]; 8 g ai/ha, scale of 0 to 100): 0% | plant injury at 16 g/ha ([10]; 16 g ai/ha, scale 0 to 100): 0% | plant injury at 31 g/ha ([10]; 31 g ai/ha, scale 0 to 100): 0% | pest or weed control at 4 g/ha ([11]; 4 g ai/ha, scale of 0 to 100): 30% | pest or weed control at 8 g/ha ([11]; 8 g ai/ha, scale of 0 to 100): 60% | pest or weed control at 16 g/ha ([11]; 16 g ai/ha, scale 0 to 100): 50% | pest or weed control at 31 g/ha ([11]; 31 g ai/ha, scale 0 to 100): 55% | pest or weed control at 4 g/ha ([12]; 4 g ai/ha, scale of 0 to 100): 5% | pest or weed control at 8 g/ha ([12]; 8 g ai/ha, scale of 0 to 100): 5% | pest or weed control at 16 g/ha ([12]; 16 g ai/ha, scale 0 to 100): 10% | pest or weed control at 31 g/ha ([12]; 31 g ai/ha, scale 0 to 100): 10% | pest or weed control at 4 g/ha ([13]; 4 g ai/ha, scale of 0 to 100): 0% | pest or weed control at 8 g/ha ([13]; 8 g ai/ha, scale of 0 to 100): 0% | pest or weed control at 16 g/ha ([13]; 16 g ai/ha, scale 0 to 100): 5% | pest or weed control at 31 g/ha ([13]; 31 g ai/ha, scale 0 to 100): 5%

— patent US11053204B2, “Pyrimidinyloxy benzene derivatives as herbicides” (FMC Corporation, priority 2015, dated 2021)
